We go through 25 compounds from patent US8822449B2, “Substituted aminoindanes and analogs thereof, and the pharmaceutical use thereof” (Sanofi, priority 2008, dated 2014).

This assay deals with T1, sodium-proton exchanger of subtype 3 (NHE3) (Homo sapiens, UniProt P48764).
T1 construct: expressed in transfected cells
T1 sequence (P48764 26-834): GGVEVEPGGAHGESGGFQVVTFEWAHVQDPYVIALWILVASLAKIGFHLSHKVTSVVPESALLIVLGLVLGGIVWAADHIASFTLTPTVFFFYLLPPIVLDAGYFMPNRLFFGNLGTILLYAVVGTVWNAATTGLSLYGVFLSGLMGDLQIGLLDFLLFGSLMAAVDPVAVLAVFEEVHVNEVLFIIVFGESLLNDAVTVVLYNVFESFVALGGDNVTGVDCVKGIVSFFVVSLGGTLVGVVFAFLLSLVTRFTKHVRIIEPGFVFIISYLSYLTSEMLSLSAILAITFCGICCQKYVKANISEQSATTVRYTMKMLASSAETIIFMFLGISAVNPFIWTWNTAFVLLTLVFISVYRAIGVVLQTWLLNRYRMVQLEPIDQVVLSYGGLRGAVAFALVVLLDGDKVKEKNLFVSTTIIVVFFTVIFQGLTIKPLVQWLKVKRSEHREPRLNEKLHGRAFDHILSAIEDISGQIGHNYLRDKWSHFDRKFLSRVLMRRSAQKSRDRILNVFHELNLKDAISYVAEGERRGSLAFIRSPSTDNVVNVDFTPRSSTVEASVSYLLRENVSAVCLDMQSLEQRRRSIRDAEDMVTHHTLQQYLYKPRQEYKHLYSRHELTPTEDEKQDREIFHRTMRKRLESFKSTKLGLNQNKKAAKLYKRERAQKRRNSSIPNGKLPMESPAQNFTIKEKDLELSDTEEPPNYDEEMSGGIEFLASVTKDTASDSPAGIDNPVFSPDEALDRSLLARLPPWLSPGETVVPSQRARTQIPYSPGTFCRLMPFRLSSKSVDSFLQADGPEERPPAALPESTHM
As to the kind of experiment: Recovery of intracellular pH (pHi) after acidification in LAP1 cells stably expressing NHE3 (BCECF fluorescence, FLIPR). The class given is cell-based. To be noted: LAP1 cells stably expressing NHE3; pH recovery after acidification; range 1 is % inhibition at 10 μM; read-out: Activity range (inhibitory effect on NHE3).
Consider `CN1CCCN([C@H]2Cc3c(Cl)cc(Cl)cc3[C@@H]2Oc2ccc(C#N)cc2F)CC1` [Example 556, 4-[trans-(1S,2S)-4,6-dichloro-2-(4-methyl-[1,4]diazepan-1-yl)indan-1-yloxy]-3-fluorobenzonitrile], for which the IC50 was under 1000 nM.
Same read-out and setting: to `CS(=O)(=O)c1ccc(O[C@H]2c3ccccc3C[C@@H]2N2CCC[C@@H](N)C2)cc1` [Example 95, (R)-1-[trans-(1S,2S)-1-(4-methanesulfonylphenoxy)indan-2-yl]piperidin-3-ylamine] belongs under 1000 nM.
In the case of `NS(=O)(=O)c1ccc(O[C@H]2c3ccccc3C[C@@H]2CN2CCOCC2)c(F)c1` (racemic) [Example 449, 3-fluoro-4-(2-morpholin-4-ylmethylindan-1-yloxy)benzenesulfonamide], the inhibition at 10 µM was in the range of 20 to 50%.
Same read-out and setting: as for `CS(=O)(=O)c1ccc(O[C@H]2c3cc(Cl)cc(Cl)c3C[C@@H]2N2CCC(N)(C(F)(F)F)C2)cc1` (mixture of isomers) [Example 302, 1-[trans-(1S,2S)-4,6-dichloro-1-(4-methanesulfonylphenoxy)indan-2-yl]-3-trifluoromethylpyrrolidin-3-ylamine], the figure is 20 to 50%; as for `Cc1cc(C)c2cccnc2c1O[C@H]1c2ccccc2CC[C@@H]1N1CCC[C@@H](N)C1` (racemic) [Example 78, (R)-1-[rac-trans-(1,2)-1-(5,7-dimethylquinolin-8-yloxy)-1,2,3,4-tetrahydronaphthalen-2-yl]piperidin-3-ylamine], 20 to 50%.
Turning to `N[C@@H]1CCCN([C@H]2Cc3ccccc3[C@@H]2Oc2ccc(S(N)(=O)=O)cc2)C1` [Example 552, 4-[trans-(1S,2S)-2-((R)-3-aminopiperidin-1-yl)indan-1-yloxy]benzenesulfonamide], the IC50 is under 1000 nM.
Still for that read-out and setting: as for `N[C@@H]1CCCN([C@@H]2Cc3ccccc3[C@H]2Oc2cccc(N3CCCCC3)c2)C1` (racemic) [Example 59, (R)-1-[rac-trans-(1,2)-1-(3-piperidin-1-ylphenoxy)indan-2-yl]piperidin-3-ylamine], the figure is 1000 to 10000 nM; as for `N#Cc1ccc(O[C@H]2c3ccccc3CC[C@@H]2N2CCC[C@H](N)C2)c(F)c1` (racemic) [Example 533, 4-[rac-trans-(1,2)-2-((S)-3-aminopiperidin-1-yl)-1,2,3,4-tetrahydronaphthalen-1-yloxy]-3-fluorobenzonitrile], under 1000 nM.
Same read-out and setting: to `CC1(C)NC(=O)N(c2ccc(F)c(O[C@H]3c4cc(Cl)cc(F)c4C[C@@H]3N3CC[C@@H](O)C3)c2)C1=O` [Example 420, 3-{3-[(1S,2S)-6-chloro-4-fluoro-2-((R)-3-hydroxypyrrolidin-1-yl)indan-1-yloxy]-4-fluorophenyl}-5,5-dimethylimidazolidine-2,4-dione] belongs 1000 to 10000 nM.
In the case of `N[C@H]1CCCN([C@H]2CCc3ccccc3[C@@H]2Oc2ccncc2)C1` (racemic) [Example 191, (S)-1-[rac-trans-(1,2)-1-(pyridin-4-yloxy)-1,2,3,4-tetrahydronaphthalen-2-yl]piperidin-3-ylamine], the inhibition at 10 µM was in the range of 20 to 50%.
Turning to `COC(=O)c1ccc(O[C@H]2c3cc(Cl)cc(Cl)c3C[C@@H]2N2CC[C@@H](O)C2)c(F)c1` [Example 553, 4-[trans-(1S,2S)-4,6-dichloro-2-((R)-3-hydroxypyrrolidin-1-yl)indan-1-yloxy]-3-fluorobenzoic acid methyl ester], the IC50 was in the range of 1000 to 10000 nM.
Same read-out and setting: to `N#Cc1csc(-c2ccc(O[C@@H]3c4ccccc4C[C@H]3N3CCC[C@@H](N)C3)cc2)n1` (racemic) [Example 381, 2-{4-[rac-trans-(1,2)-2-((R)-3-aminopiperidin-1-yl)indan-1-yloxy]phenyl}thiazole-4-carbonitrile] belongs 1000 to 10000 nM.
Still for that read-out and setting: as for `NS(=O)(=O)c1ccc(O[C@H]2c3ccccc3C[C@@H]2CN2CCCC2)c(F)c1` (racemic) [Example 452, 3-fluoro-4-(2-pyrrolidin-1-ylmethylindan-1-yloxy)benzenesulfonamide], the figure is 1000 to 10000 nM; as for `NC(=O)c1cc(Cl)ccc1O[C@H]1c2ccccc2CC[C@@H]1N1CCC[C@@H](N)C1` (racemic) [Example 365, 2-[rac-trans-(1,2)-2-((R)-3-aminopiperidin-1-yl)-1,2,3,4-tetrahydronaphthalen-1-yloxy]-5-chlorobenzamide], 1000 to 10000 nM.
For the compound `N[C@H]1CCCN([C@H]2CCc3ccccc3[C@@H]2Oc2ccccc2N2CCOCC2)C1` (racemic) [Example 158, (S)-1-[rac-trans-(1,2)-1-(2-morpholin-4-ylphenoxy)-1,2,3,4-tetrahydronaphthalen-2-yl]piperidin-3-ylamine], the inhibition at 10 µM was in the range of 20 to 50%.
For `CS(=O)(=O)c1ccccc1O[C@H]1c2cc(Cl)cc(Cl)c2C[C@@H]1N1CCC[C@@H](N)C1` [Example 25, (R)-1-[(1S,2S)-4,6-dichloro-1-(2-methanesulfonylphenoxy)indan-2-yl]piperidin-3-ylamine], the IC50 was under 1000 nM.
Regarding `N#Cc1ccc(O[C@@H]2c3ccccc3C[C@H]2N2CCC(CN)CC2)c(Cl)c1` (racemic) [Example 547, 4-[rac-trans-(1,2)-2-(4-aminomethylpiperidin-1-yl)indan-1-yloxy]-3-chlorobenzonitrile], the IC50 lay within 1000 to 10000 nM.
As to `CN1CCN(c2ccc(O[C@H]3c4cc(Cl)cc(Cl)c4C[C@@H]3N3CC[C@@H](O)C3)c(F)c2)C1=O` [Example 330, 1-{4-[trans-(1S,2S)-4,6-dichloro-2-((R)-3-hydroxypyrrolidin-1-yl)indan-1-yloxy]-3-fluorophenyl}-3-methylimidazolidin-2-one], the IC50 is under 1000 nM.
On the same count and under the same terms, as for `N#Cc1c(F)cccc1O[C@@H]1c2ccccc2C[C@H]1N1CCC(CN)C1` (mixture of isomers) [Example 374, 2-[rac-trans-(1,2)-2-(3-aminomethylpyrrolidin-1-yl)indan-1-yloxy]-6-fluorobenzonitrile], the figure is 1000 to 10000 nM; as for `CC(=O)Nc1cccc(O[C@H]2c3cc(Cl)ccc3C[C@@H]2N2CCCC2)c1` (racemic) [Example 658, N-[3-(rac-trans-(1,2)-6-chloro-2-pyrrolidin-1-ylindan-1-yloxy)phenyl]acetamide], under 1000 nM.
As for `CC(=O)Nc1cccc(O[C@H]2c3c(Cl)cccc3C[C@@H]2N2CCCC2)c1` (racemic) [Example 662, N-[3-(rac-trans-(1,2)-7-chloro-2-pyrrolidin-1-ylindan-1-yloxy)phenyl]acetamide], the IC50 fell in the range of 1000 to 10000 nM.
On the same count and under the same terms, to `CC(=O)Nc1cccc(O[C@H]2c3ccccc3C[C@@H]2N2CCCC2)n1` (racemic) [Example 668, N-[6-(rac-trans-(1,2)-2-pyrrolidin-1-ylindan-1-yloxy)-pyridin-2-yl]acetamide] belongs under 1000 nM; to `Cc1c(Cl)cccc1O[C@@H]1c2ccccc2C[C@H]1N1CCC(CN)C1` (mixture of isomers) [Example 611, C-{1-[rac-trans-(1,2)-1-(3-chloro-2-methylphenoxy)indan-2-yl]pyrrolidin-3-yl}methylamine], 1000 to 10000 nM; to `CN1CCN(c2ccc(F)c(O[C@H]3c4cc(Cl)cc(Cl)c4C[C@@H]3N3CC[C@@H](O)C3)c2)C1=O` [Example 314, 1-{3-[(1S,2S)-4,6-dichloro-2-((R)-3-hydroxypyrrolidin-1-yl)indan-1-yloxy]-4-fluorophenyl}-3-methylimidazolidin-2-one], under 1000 nM.
Take `N[C@H]1CCCN([C@H]2CCc3ccccc3[C@@H]2Oc2ccc(F)cc2-c2cc[nH]n2)C1` (racemic) [Example 205, (S)-1-{rac-trans-(1,2)-1-[4-fluoro-2-(1H-pyrazol-3-yl)phenoxy]-1,2,3,4-tetrahydronaphthalen-2-yl}piperidin-3-ylamine]: the inhibition at 10 µM fell in the range of 20 to 50%.
